Results published in patent publication US7700577B2, “Carbohydrate based anti-bacterials” (Alchemia Limited, priority 2002, dated 2010).

Experiments:
[1] = test system: S. aureus; test: MIC testing, broth microdilution (NCCLS), S. aureus; format: cell-based, Staphylococcus aureus; settings: for SA24 (MIC): S. aureus after 24 hours exposure; for SA48 (MIC): S. aureus after 48 hours exposure
Excerpt: (§1) The broth microdilution format of the National Committee for Clinical Laboratory Standards (NCCLS) approved standard for susceptibility tests as outlined in M7-A4 “methods for dillution Antimicrobial susceptibility tests for bacteria that grow aerobically; approved standard—fifth edition”, January 2000 was utilized for minimum inhibitory concentration testing in Mueller-Hinton broth. The broth for Streptococcus pyogenes testing was supplemented with 2% laked horse blood. A positive result in initial testing was determined by complete inhibition of macroscopic bacterial growth at a concentration of 128 micrograms per mL after incubation for 16 to 24 hours at 37 degrees C. In the case of Micrococcus luteus, incubation was at 30 degrees C. […] Bacterial Types Are: • SA24 S. aureus after 24 hours exposure • SA48 S. aureus after 48 hours exposure • EC24 E. coli after 24 hours exposure

[2] = test system: Micrococcus luteus (ATCC272); test: MIC testing, additional organisms: Micrococcus luteus; format: cell-based; settings: incubation at 30 degrees C
Excerpt: (§2) The broth microdilution format of the National Committee for Clinical Laboratory Standards (NCCLS) approved standard for susceptibility tests as outlined in M7-A4 “methods for dillution Antimicrobial susceptibility tests for bacteria that grow aerobically; approved standard—fifth edition”, January 2000 was utilized for minimum inhibitory concentration testing in Mueller-Hinton broth. The broth for Streptococcus pyogenes testing was supplemented with 2% laked horse blood. A positive result in initial testing was determined by complete inhibition of macroscopic bacterial growth at a concentration of 128 micrograms per mL after incubation for 16 to 24 hours at 37 degrees C. In the case of Micrococcus luteus, incubation was at 30 degrees C.
(§3) Bacterial Types Are: • SA24 S. aureus after 24 hours exposure • SA48 S. aureus after 48 hours exposure • EC24 E. coli after 24 hours exposure
(§4) The following compounds were tested against additional organisims with the following results. • 1. Micrococcus luteus (ATCC272) • 2. Staphylococcus aureus (ATCC29213) • 3. Staphylococcus aureus (ATCC43300) MRSA • 4. Enterococcus faecalis (ATCC29212) • 5. Enterococcus faecalis (ATCCS 1299) Vancomycin resistant • 6. Streptococcus pyrogenes (ATCC8668)

[3] = test system: Staphylococcus aureus (ATCC29213); test: MIC testing, additional organisms: Staphylococcus aureus ATCC29213; format: cell-based
Excerpt: as §2, §3, §4

[4] = test system: Staphylococcus aureus (ATCC43300) MRSA; test: MIC testing, additional organisms: Staphylococcus aureus MRSA; format: cell-based
Excerpt: as §2, §3, §4

[5] = test system: Enterococcus faecalis (ATCC29212); test: MIC testing, additional organisms: Enterococcus faecalis ATCC29212; format: cell-based
Excerpt: as §2, §3, §4

[6] = test system: Enterococcus faecalis (ATCCS 1299) Vancomycin resistant; test: MIC testing, additional organisms: Enterococcus faecalis vancomycin resistant; format: cell-based
Excerpt: as §2, §3, §4

[7] = test system: Streptococcus pyrogenes (ATCC8668); test: MIC testing, additional organisms: Streptococcus pyrogenes; format: cell-based; settings: broth supplemented with 2% laked horse blood
Excerpt: as §2, §3, §4

[8] = test system: E. coli; test: MIC testing, broth microdilution (NCCLS), E. coli; format: cell-based; settings: E. coli after 24 hours exposure
Excerpt: as §1

| SMILES | SA24 (MIC) [1] | MIC, organism 1 [2] | MIC, organism 2 [3] | MIC, organism 3 [4] | MIC, organism 4 [5] | MIC, organism 5 [6] | MIC, organism 6 [7] | SA48 (MIC) [1] | EC24 (MIC) [8] |
| --- | --- | --- | --- | --- | --- | --- | --- | --- | --- |
| O=C(Nc1cccc(C(F)(F)F)c1)NC1COC(CO)C(NC(=O)c2ccc(Oc3ccccc3)cc2)C1OC1OC(CO)C(O)C(O)C1NC(=O)Nc1cccc(C(F)(F)F)c1 (stereo not shown) [compound 73] | + (+ indicates an MIC value of less than 128 micrograms per mL) | + (+ indicates an MIC value of less than 128 micrograms per mL) | + (+ indicates an MIC value of less than 128 micrograms per mL) | + (+ indicates an MIC value of less than 128 micrograms per mL) | + (+ indicates an MIC value of less than 128 micrograms per mL) | + (+ indicates an MIC value of less than 128 micrograms per mL) | + (+ indicates an MIC value of less than 128 micrograms per mL) |  |  |
| CCCCCC(=O)NC1C(CO)OCC(NC(=O)Nc2cccc(C(F)(F)F)c2)C1OC1OC(CO)C(O)C(O)C1NC(=O)Nc1cccc(C(F)(F)F)c1 (stereo not shown) [compound 70] | − (− indicates an MIC of greater then 128 micrograms per mL) | + (+ indicates an MIC value of less than 128 micrograms per mL) | − (− indicates an MIC of greater then 128 micrograms per mL) | − (− indicates an MIC of greater then 128 micrograms per mL) | + (+ indicates an MIC value of less than 128 micrograms per mL) | − (− indicates an MIC of greater then 128 micrograms per mL) | + (+ indicates an MIC value of less than 128 micrograms per mL) |  |  |
| O=C(Nc1cccc(C(F)(F)F)c1)NC1COC(CO)C(NC(=O)c2ccc(-c3ccccc3)cc2)C1OC1OC(CO)C(O)C(O)C1NC(=O)Nc1cccc(C(F)(F)F)c1 (stereo not shown) [compound 74] | + (+ indicates an MIC value of less than 128 micrograms per mL) | + (+ indicates an MIC value of less than 128 micrograms per mL) | + (+ indicates an MIC value of less than 128 micrograms per mL) | + (+ indicates an MIC value of less than 128 micrograms per mL) | + (+ indicates an MIC value of less than 128 micrograms per mL) | + (+ indicates an MIC value of less than 128 micrograms per mL) | + (+ indicates an MIC value of less than 128 micrograms per mL) |  |  |
| CCCCCCCCCCCCC(=O)NC1C(CO)OCC(NC(=O)Nc2cccc(C(F)(F)F)c2)C1OC1OC(CO)C(O)C(O)C1NC(=O)Nc1cccc(C(F)(F)F)c1 (stereo not shown) [compound 76] | + (+ indicates an MIC value of less than 128 micrograms per mL) | + (+ indicates an MIC value of less than 128 micrograms per mL) | + (+ indicates an MIC value of less than 128 micrograms per mL) | + (+ indicates an MIC value of less than 128 micrograms per mL) | + (+ indicates an MIC value of less than 128 micrograms per mL) | + (+ indicates an MIC value of less than 128 micrograms per mL) | + (+ indicates an MIC value of less than 128 micrograms per mL) |  |  |
| CCCCCCCCCCS(=O)(=O)NC1C(CO)OCC(NC(=O)Nc2cccc(C(F)(F)F)c2)C1OC1OC(CO)C(O)C(O)C1NC(=O)Nc1cccc(C(F)(F)F)c1 (stereo not shown) [compound 69] | + (+ indicates an MIC value of less than 128 micrograms per mL) | + (+ indicates an MIC value of less than 128 micrograms per mL) | + (+ indicates an MIC value of less than 128 micrograms per mL) | + (+ indicates an MIC value of less than 128 micrograms per mL) | + (+ indicates an MIC value of less than 128 micrograms per mL) | − (− indicates an MIC of greater then 128 micrograms per mL) | + (+ indicates an MIC value of less than 128 micrograms per mL) |  |  |
| CCCCCCCCCCN[C@H]1C(CO)OCC(NC(=O)Nc2cccc(C(F)(F)F)c2)[C@H]1O[C@@H]1OC(CO)[C@@H](O)[C@H](O)C1NC(=O)Nc1cccc(C(F)(F)F)c1 (stereo partly shown) [compound 56] | + (+ indicates an MIC value of less than 128 micrograms per mL) | + (+ indicates an MIC value of less than 128 micrograms per mL) | + (+ indicates an MIC value of less than 128 micrograms per mL) | + (+ indicates an MIC value of less than 128 micrograms per mL) | + (+ indicates an MIC value of less than 128 micrograms per mL) | + (+ indicates an MIC value of less than 128 micrograms per mL) | + (+ indicates an MIC value of less than 128 micrograms per mL) | + (+ indicates an MIC value of less than 128 micrograms per mL) |  |
| CC(C)=CCCC(C)=CCCC(C)=CCN[C@H]1C(CO)OCC(NC(=N)Nc2cccc(C(F)(F)F)c2)[C@H]1O[C@@H]1OC(CO)[C@@H](O)[C@H](O)C1NC(=N)Nc1cccc(C(F)(F)F)c1 (stereo partly shown) [compound 24] | + (+ indicates an MIC value of less than 128 micrograms per mL) |  |  |  |  |  |  | + (+ indicates an MIC value of less than 128 micrograms per mL) | + (+ indicates an MIC value of less than 128 micrograms per mL) |
| N=C(Nc1cccc(C(F)(F)F)c1)NC1[C@H](O[C@@H]2C(NC(=N)Nc3cccc(C(F)(F)F)c3)COC(CO)[C@@H]2NC(=O)C(N)Cc2ccc(-c3ccccc3)cc2)OC(CO)[C@@H](O)[C@@H]1O (stereo partly shown) [compound 26] | + (+ indicates an MIC value of less than 128 micrograms per mL) |  |  |  |  |  |  | + (+ indicates an MIC value of less than 128 micrograms per mL) | + (+ indicates an MIC value of less than 128 micrograms per mL) |
| N=C(Nc1cccc(C(F)(F)F)c1)NC1[C@H](O[C@@H]2C(NC(=N)Nc3cccc(C(F)(F)F)c3)COC(CO)[C@@H]2NC(=N)Nc2ccc(-c3ccccc3)cc2)OC(CO)[C@@H](O)[C@@H]1O (stereo partly shown) [compound 21] | + (+ indicates an MIC value of less than 128 micrograms per mL) |  |  |  |  |  |  | + (+ indicates an MIC value of less than 128 micrograms per mL) | + (+ indicates an MIC value of less than 128 micrograms per mL) |
| CCCCCCCC(=O)Nc1ccc(C(=O)NC2C(CO)OCC(NC(=O)Nc3cccc(C(F)(F)F)c3)C2OC2OC(CO)C(O)C(O)C2NC(=O)Nc2cccc(C(F)(F)F)c2)cc1 (stereo not shown) [compound 65] | + (+ indicates an MIC value of less than 128 micrograms per mL) | + (+ indicates an MIC value of less than 128 micrograms per mL) | − (− indicates an MIC of greater then 128 micrograms per mL) | − (− indicates an MIC of greater then 128 micrograms per mL) | + (+ indicates an MIC value of less than 128 micrograms per mL) | − (− indicates an MIC of greater then 128 micrograms per mL) | + (+ indicates an MIC value of less than 128 micrograms per mL) | + (+ indicates an MIC value of less than 128 micrograms per mL) |  |
| Cc1ccc(NC(=N)NC2[C@H](O[C@@H]3C(NC(=O)Nc4cccc(C(F)(F)F)c4)COC(CO)[C@@H]3NC(=O)c3ccc(-c4ccccc4)cc3)OC(CO)[C@@H](O)[C@@H]2O)cc1 (stereo partly shown) [compound 46] |  |  |  |  |  |  |  | + (+ indicates an MIC value of less than 128 micrograms per mL) | − (− indicates an MIC of greater then 128 micrograms per mL) |
| N=C(Nc1cccc(C(F)(F)F)c1)NC1[C@H](O[C@@H]2C(NC(=N)Nc3cccc(C(F)(F)F)c3)COC(CO)[C@@H]2NC(=O)C(N)c2ccc(-c3ccccc3)cc2)OC(CO)[C@@H](O)[C@@H]1O (stereo partly shown) [compound 25] | + (+ indicates an MIC value of less than 128 micrograms per mL) |  |  |  |  |  |  | + (+ indicates an MIC value of less than 128 micrograms per mL) | + (+ indicates an MIC value of less than 128 micrograms per mL) |
| Cc1ccc(S(=O)(=O)NC2[C@H](O[C@@H]3C(NC(=O)Nc4cccc(C(F)(F)F)c4)COC(CO)[C@@H]3NC(=O)c3ccc(-c4ccccc4)cc3)OC(CO)[C@@H](O)[C@@H]2O)cc1 (stereo partly shown) [compound 49] |  |  |  |  |  |  |  | + (+ indicates an MIC value of less than 128 micrograms per mL) | − (− indicates an MIC of greater then 128 micrograms per mL) |
